For orientation: IC50 means the concentration that gives 50% inhibition. A high value points to weaker potency in that assay.

Common to all, as to assay: HCV RNA-Dependent RNA Polymerase Assay (IC50)
Assay [1] addresses Genome polyprotein (Hepatitis C virus genotype 2b (isolate HC-J8), UniProt P26661).
The target in assay [2] is Genome polyprotein (Hepatitis C virus genotype 1b (isolate BK), UniProt P26663). The note with it: pH 7.5; 23 °C.
Assay [3] addresses T1, Genome polyprotein [2420-2989,M2842K,R2963Q] (Hepatitis C virus genotype 1b (isolate BK), UniProt P26663, M2842K/R2963Q).
T1 construct: 2420-2989
To be noted: pH 7.5; 23 °C.

Assay [4] addresses T2, Genome polyprotein [2420-2989,R2920E,R2963Q] (Hepatitis C virus genotype 1b (isolate BK), UniProt P26663, R2920E/R2963Q).
T2 construct: 2420-2989
The note with it: pH 7.5; 23 °C.

Bounds are passed on as bounds.

Genome polyprotein (Hepatitis C virus genotype 2b (isolate HC-J8), UniProt P26661), sequence (P26661 2443-3033 limits assumed): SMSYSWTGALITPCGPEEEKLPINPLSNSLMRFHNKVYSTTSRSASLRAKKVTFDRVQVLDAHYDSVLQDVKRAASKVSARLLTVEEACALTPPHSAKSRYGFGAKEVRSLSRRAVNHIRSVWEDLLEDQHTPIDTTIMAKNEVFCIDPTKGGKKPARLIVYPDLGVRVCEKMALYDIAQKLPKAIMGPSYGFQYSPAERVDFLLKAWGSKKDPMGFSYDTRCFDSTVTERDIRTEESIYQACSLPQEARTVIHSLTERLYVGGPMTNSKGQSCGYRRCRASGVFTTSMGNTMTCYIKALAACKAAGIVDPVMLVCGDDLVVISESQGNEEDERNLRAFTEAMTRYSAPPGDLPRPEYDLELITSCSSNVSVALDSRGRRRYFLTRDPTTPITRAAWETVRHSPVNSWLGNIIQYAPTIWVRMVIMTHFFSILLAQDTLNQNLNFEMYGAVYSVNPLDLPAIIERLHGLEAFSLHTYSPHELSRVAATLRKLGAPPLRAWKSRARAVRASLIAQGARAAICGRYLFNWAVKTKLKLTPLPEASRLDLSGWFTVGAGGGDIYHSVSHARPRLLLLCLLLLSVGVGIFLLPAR
Genome polyprotein (Hepatitis C virus genotype 1b (isolate BK), UniProt P26663), sequence (P26663 2420-3010 limits assumed): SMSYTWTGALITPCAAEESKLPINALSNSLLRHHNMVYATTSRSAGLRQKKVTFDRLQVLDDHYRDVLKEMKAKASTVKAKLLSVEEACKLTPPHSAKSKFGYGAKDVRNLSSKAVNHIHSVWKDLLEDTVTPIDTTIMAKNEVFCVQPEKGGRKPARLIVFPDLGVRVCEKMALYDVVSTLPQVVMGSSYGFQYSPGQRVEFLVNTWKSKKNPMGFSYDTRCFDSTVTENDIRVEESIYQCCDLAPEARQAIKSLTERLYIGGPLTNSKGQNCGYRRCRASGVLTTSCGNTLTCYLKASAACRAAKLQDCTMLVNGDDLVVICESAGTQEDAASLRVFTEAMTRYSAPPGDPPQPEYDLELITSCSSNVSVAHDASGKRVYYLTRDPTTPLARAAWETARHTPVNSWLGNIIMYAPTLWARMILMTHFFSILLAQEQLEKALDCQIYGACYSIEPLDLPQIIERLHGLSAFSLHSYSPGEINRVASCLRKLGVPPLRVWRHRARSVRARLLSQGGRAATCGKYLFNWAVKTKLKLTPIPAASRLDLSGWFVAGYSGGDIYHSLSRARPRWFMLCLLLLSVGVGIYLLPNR
T2 sequence (P26663 2420-2997, looked up, stated change not applied): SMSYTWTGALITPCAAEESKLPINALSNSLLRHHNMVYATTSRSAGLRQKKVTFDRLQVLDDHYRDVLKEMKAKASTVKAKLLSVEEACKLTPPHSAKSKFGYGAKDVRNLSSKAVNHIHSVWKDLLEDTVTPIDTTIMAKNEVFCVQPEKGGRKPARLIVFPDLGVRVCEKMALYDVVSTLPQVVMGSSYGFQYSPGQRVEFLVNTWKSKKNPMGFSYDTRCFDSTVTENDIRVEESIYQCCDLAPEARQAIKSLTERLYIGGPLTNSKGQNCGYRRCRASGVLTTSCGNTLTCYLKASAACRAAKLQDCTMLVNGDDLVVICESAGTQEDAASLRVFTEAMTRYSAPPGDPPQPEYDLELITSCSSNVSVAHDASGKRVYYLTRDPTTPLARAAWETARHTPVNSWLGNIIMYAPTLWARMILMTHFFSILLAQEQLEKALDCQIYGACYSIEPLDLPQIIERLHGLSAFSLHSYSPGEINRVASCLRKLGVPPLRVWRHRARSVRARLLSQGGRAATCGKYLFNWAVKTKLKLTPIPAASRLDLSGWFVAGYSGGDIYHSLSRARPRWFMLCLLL
T1 sequence (P26663 2420-2997, looked up, stated change not applied): as above

Regarding `O=C1c2cccc3c(NCCO)ccc(c23)C(=O)N1c1ccccc1` [1H-benzo[de]isoquinoline-1,3(2H)-dione, 4], the IC50 in assay [1] was > 50 µM.

Turning to `O=C1c2cccc3cccc(c23)C(=O)N1c1cccc(Br)c1` [1H-benzo[de]isoquinoline-1,3(2H)-dione, 5], the IC50 in assay [1] and in assay [2] was > 50 µM throughout.

For the molecule `O=C1c2cccc3c(NCCO)ccc(c23)C(=O)N1c1cccc(F)c1` [1H-benzo[de]isoquinoline-1,3(2H)-dione, 13], the IC50 in assay [1] was > 50 µM.

Turning to `NS(=O)(=O)c1cccc(N2C(=O)c3cccc4c(NCCO)ccc(c34)C2=O)c1` [1H-benzo[de]isoquinoline-1,3(2H)-dione, 14], in assay [1], the IC50 was > 50 µM.

With `OCCNc1ccc2c3c(cccc13)CN(c1cccc(Br)c1)C2` [benzo[de]isoquinoline, 11], the IC50 in assay [1] and in assay [2] was > 50 µM each time.

As to `CC(C)N(c1cc(-c2ccccc2)sc1C(=O)O)C(=O)[C@H]1CC[C@H](C)CC1` [thiophene scaffold, 21], the IC50 in assay [3] was > 500 nM; in assay [1], > 10 µM; in assay [4] it was 100 nM.

For the origin of these results see BindingDB's records for doi:10.1021/jm900517t.
